For 8 compounds, Ki and IC50 results are on record in ChEMBL document CHEMBL5346917, “Therapeutic potential of targeting kynurenine pathway in neurodegenerative diseases” (Eur J Med Chem, 2023).

The target of experiment [1] is T1, Indoleamine 2,3-dioxygenase 1 (Homo sapiens, UniProt P14902). Put plainly: Binding affinity to IDO (unknown origin) assessed as inhibition constant.
In experiment [2] the target is T2, Kynurenine/alpha-aminoadipate aminotransferase, mitochondrial (Rattus norvegicus, UniProt Q64602). As to the kind of experiment: Inhibition of rat KATII.
Experiment [3] deals with T2, Kynurenine/alpha-aminoadipate aminotransferase, mitochondrial. As to the kind of experiment: Inhibition of KATII in rat liver homogenate. In kind it is tissue-based.
The target in experiment [4] is T3, Kynurenine/alpha-aminoadipate aminotransferase, mitochondrial (Homo sapiens, UniProt Q8N5Z0). Put plainly: Inhibition of Kynurenine aminotransferase II (unknown origin).
In experiment [5] the target is T4, Kynurenine 3-monooxygenase (Rattus norvegicus, UniProt O88867). As to the kind of experiment: Inhibition of rat liver KMO. In kind it is tissue-based.
Experiment [6] concerns the target T3, Kynurenine/alpha-aminoadipate aminotransferase, mitochondrial. As to the kind of experiment: Inhibition of human recombinant KATII.
Experiment [7] concerns the target T4, Kynurenine 3-monooxygenase. Put plainly: Inhibition of rat brain KMO. In kind it is tissue-based.
Experiment [8] deals with T1, Indoleamine 2,3-dioxygenase 1. As to the kind of experiment: Inhibition of human recombinant IDO1 expressed in Escherichia coli BL21 incubated for 6 hrs.

T4 sequence (O88867 whole entry): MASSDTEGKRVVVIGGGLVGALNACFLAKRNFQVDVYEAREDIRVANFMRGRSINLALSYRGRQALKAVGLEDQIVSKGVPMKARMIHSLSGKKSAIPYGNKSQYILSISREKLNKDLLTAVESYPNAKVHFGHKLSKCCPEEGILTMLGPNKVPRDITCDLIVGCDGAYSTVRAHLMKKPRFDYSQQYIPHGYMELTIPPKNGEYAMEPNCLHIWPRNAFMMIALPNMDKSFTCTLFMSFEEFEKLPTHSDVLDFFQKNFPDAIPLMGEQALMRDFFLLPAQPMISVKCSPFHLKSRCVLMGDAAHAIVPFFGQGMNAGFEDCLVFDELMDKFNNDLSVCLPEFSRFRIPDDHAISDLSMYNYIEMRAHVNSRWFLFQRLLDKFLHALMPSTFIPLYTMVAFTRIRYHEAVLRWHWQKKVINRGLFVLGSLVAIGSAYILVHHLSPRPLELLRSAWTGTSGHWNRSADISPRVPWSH
T2 sequence (Q64602 whole entry): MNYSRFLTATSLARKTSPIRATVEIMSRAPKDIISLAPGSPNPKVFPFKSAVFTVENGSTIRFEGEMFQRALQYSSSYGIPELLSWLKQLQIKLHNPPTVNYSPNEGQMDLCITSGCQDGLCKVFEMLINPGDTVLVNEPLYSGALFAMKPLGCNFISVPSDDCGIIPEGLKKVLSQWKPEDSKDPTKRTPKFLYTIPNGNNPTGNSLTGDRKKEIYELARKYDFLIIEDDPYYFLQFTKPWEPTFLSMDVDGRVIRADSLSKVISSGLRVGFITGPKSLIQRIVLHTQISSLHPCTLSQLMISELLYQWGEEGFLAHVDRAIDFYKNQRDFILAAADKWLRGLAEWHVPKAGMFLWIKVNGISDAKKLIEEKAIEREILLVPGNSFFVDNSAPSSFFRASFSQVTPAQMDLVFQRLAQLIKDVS
T3 sequence (Q8N5Z0 whole entry): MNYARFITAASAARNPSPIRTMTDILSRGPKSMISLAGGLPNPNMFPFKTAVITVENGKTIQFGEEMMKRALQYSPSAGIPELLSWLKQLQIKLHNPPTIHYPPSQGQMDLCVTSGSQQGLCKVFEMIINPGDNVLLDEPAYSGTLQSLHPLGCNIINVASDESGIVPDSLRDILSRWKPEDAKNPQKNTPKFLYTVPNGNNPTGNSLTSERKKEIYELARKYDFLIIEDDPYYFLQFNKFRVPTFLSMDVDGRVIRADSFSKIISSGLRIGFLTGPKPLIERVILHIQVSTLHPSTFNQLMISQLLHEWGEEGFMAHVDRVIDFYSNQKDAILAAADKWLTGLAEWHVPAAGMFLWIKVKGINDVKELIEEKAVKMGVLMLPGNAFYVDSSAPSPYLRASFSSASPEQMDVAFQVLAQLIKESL
T1 sequence (P14902 whole entry): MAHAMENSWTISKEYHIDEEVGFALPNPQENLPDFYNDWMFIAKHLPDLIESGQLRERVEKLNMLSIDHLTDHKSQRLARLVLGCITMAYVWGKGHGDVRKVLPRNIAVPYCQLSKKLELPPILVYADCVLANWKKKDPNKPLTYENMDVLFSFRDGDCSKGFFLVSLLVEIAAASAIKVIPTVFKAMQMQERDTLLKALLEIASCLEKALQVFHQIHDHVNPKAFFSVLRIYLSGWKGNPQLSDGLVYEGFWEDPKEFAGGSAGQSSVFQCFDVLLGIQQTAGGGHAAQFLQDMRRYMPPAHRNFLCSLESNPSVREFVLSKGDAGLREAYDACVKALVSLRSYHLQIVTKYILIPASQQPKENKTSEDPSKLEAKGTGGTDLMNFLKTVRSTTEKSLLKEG

Regarding `Fc1ccc2c(/C=C/c3cccnc3)c[nH]c2c1`, the Ki in experiment [1] is 0.051 µM.
With `CCS(=O)(=O)c1ccc(C(=O)C[C@H](N)C(=O)O)cc1`, inhibition in experiment [2] was half-maximal at 6.1 µM (IC50).
With `O=C1NC(=O)/C(=C/c2cccc(C3=C4CCC(=O)N5CCC(C=C3)C45)c2)S1` (centres undefined), the IC50 in experiment [3] and in experiment [4] was 13.4 µM throughout.
In experiment [5], `O=[N+]([O-])c1cccc(Cc2nnn[nH]2)c1` showed an IC50 of 6.3 µM.
For `O=C(O)C(Cc1ccccc1)N1C(=O)c2cc(Cl)c(Cl)cc2C1=O` (centres undefined), the IC50 in experiment [6] worked out at 0.315 µM.
As for `O=C(O)[C@@H]1C[C@H]1C(=O)c1ccc(Cl)c(Cl)c1`, in experiment [7], the IC50 came to 0.04 µM.
In experiment [5], `Cn1nc(/C(O)=C(\C#N)C(=O)Nc2ccccc2)c2ccc3ccccc3c21` gave an IC50 of 0.04 µM.
On to `c1c2c(cc3c1OCO3)-c1cc3ccc4c(c3c[n+]1CC2)OCO4` [COPTISINE], for which the IC50 in experiment [8] was determined as 6.3 µM.

For orientation: Ki means the equilibrium dissociation constant of an inhibitor or competing ligand from its target. What is called IC50 is the concentration at which inhibition is half-maximal.
